According to PMC6804253, “Predicting and Experimentally Validating Hot-Spot Residues at Protein–Protein Interfaces” (ACS Chemical Biology, 2019):
Where two headings read alike, the source gives them in different places.

Tests used:
[1] = tested on: PPIs of the SKEMPI data set (by PDBID); conditions: ref SKEMPI, cited from earlier work; for sk_ddG_kJ (SKEMPI experimental ΔΔG of binding, mutation to alanine): single mutation to alanine in the complex of the given PDBID; for sk_ddG_kJ: SKEMPI experimental ΔΔG of binding; for sk_ddG_kJ / sk_ddG_kJ (SKEMPI experimental ΔΔG, mutation to alanine) / sk_ddG_kJ (SKEMPI experimental ΔΔG): single mutation to alanine; for sk_ddG_kJ (SKEMPI experimental ΔΔG, mutation to alanine): r_group DERKH
[2] = tested on: PPIs of the SKEMPI data set (by PDBID); assay: SKEMPI experimental ΔΔG, single mutations to alanine; format: binding; conditions: for sk_class: class of the SKEMPI experimental ΔΔG
[3] = Positive / Neutral / Negative by ΔΔG threshold 4.184 kJ/mol, ref SKEMPI
[4] = PPI given by PDBID, sheet sortedByGroup
[5] = class by ΔΔG threshold 4.184 kJ/mol, ref SKEMPI
[6] = complex by PDBID, sheet sortedByGroup
[7] = class by the 4.184 kJ/mol threshold, r_group DERKH

## 1A22 YA42A
[1]
  sk_ddG_kJ (SKEMPI experimental ΔΔG of binding, mutation to alanine): 0.84 kJ
[2]; [3]
  sk_class (class of the SKEMPI experimental ΔΔG): Neutral (neutral (little effect) 4.184 kJ/mol < ΔΔG > −4.184 kJ/mol)

## 1A22 LA15A
[1]
  sk_ddG_kJ (SKEMPI experimental ΔΔG of binding, mutation to alanine): 0.63 kJ
[2]; [3]
  sk_class (class of the SKEMPI experimental ΔΔG): Neutral (neutral (little effect) 4.184 kJ/mol < ΔΔG > −4.184 kJ/mol)

## 1A4Y EB108A
[1]; complex by PDBID
  sk_ddG_kJ: -1.34 kJ
[2]; ref SKEMPI
  sk_class: Neutral (neutral (little effect) 4.184 kJ/mol < ΔΔG > −4.184 kJ/mol)

## 1A4Y RB70A
[1]; complex by PDBID
  sk_ddG_kJ: -1.05 kJ
[2]; ref SKEMPI
  sk_class: Neutral (neutral (little effect) 4.184 kJ/mol < ΔΔG > −4.184 kJ/mol)

## 1A4Y HB84A
[1]; complex by PDBID
  sk_ddG_kJ: 0.71 kJ
[2]; ref SKEMPI
  sk_class: Neutral (neutral (little effect) 4.184 kJ/mol < ΔΔG > −4.184 kJ/mol)

## 1A22 KA168A
[1]; [4]
  sk_ddG_kJ (SKEMPI experimental ΔΔG, mutation to alanine): -0.84 kJ
[2]; [5]
  sk_class (class of the SKEMPI experimental ΔΔG): Neutral (neutral (little effect) 4.184 kJ/mol < ΔΔG > −4.184 kJ/mol)

## 1GC1 EC92A
[1]; [6]
  sk_ddG_kJ (SKEMPI experimental ΔΔG, mutation to alanine): 0.08 kJ
[2]; [7]
  sk_class (class of the SKEMPI experimental ΔΔG): Neutral (neutral (little effect) 4.184 kJ/mol < ΔΔG > −4.184 kJ/mol)

## 1A4Y HB8A
[1]; [4]
  sk_ddG_kJ (SKEMPI experimental ΔΔG, mutation to alanine): 3.77 kJ
[2]; [5]
  sk_class (class of the SKEMPI experimental ΔΔG): Neutral (neutral (little effect) 4.184 kJ/mol < ΔΔG > −4.184 kJ/mol)

## 1A22 LA73A
[1]
  sk_ddG_kJ (SKEMPI experimental ΔΔG of binding, mutation to alanine): -0.84 kJ
[2]; [3]
  sk_class (class of the SKEMPI experimental ΔΔG): Neutral (neutral (little effect) 4.184 kJ/mol < ΔΔG > −4.184 kJ/mol)

## 1A22 SA62A
[1]; complex given by PDBID, mutation by mut_pdb
  sk_ddG_kJ (SKEMPI experimental ΔΔG): 0.42 kJ
[2]
  sk_class: Neutral (neutral (little effect) 4.184 kJ/mol < ΔΔG > −4.184 kJ/mol)

## 1A4Y RB5A
[1]; [4]
  sk_ddG_kJ (SKEMPI experimental ΔΔG, mutation to alanine): 9.67 kJ
[2]; [5]
  sk_class (class of the SKEMPI experimental ΔΔG): Positive (positive (a hot residue) ΔΔG ≥ 4.184 kJ/mol)

## 1A22 LA9A
[1]
  sk_ddG_kJ (SKEMPI experimental ΔΔG of binding, mutation to alanine): -0.17 kJ
[2]; [3]
  sk_class (class of the SKEMPI experimental ΔΔG): Neutral (neutral (little effect) 4.184 kJ/mol < ΔΔG > −4.184 kJ/mol)

## 1A4Y HB13A
[1]; [4]
  sk_ddG_kJ (SKEMPI experimental ΔΔG, mutation to alanine): -1.42 kJ
[2]; [5]
  sk_class (class of the SKEMPI experimental ΔΔG): Neutral (neutral (little effect) 4.184 kJ/mol < ΔΔG > −4.184 kJ/mol)

## 1A22 KA172A
[1]; [4]
  sk_ddG_kJ (SKEMPI experimental ΔΔG, mutation to alanine): 8.37 kJ
[2]; [5]
  sk_class (class of the SKEMPI experimental ΔΔG): Positive (positive (a hot residue) ΔΔG ≥ 4.184 kJ/mol)

## 1A22 RA183A
[1]; [4]
  sk_ddG_kJ (SKEMPI experimental ΔΔG, mutation to alanine): 2.09 kJ
[2]; [5]
  sk_class (class of the SKEMPI experimental ΔΔG): Neutral (neutral (little effect) 4.184 kJ/mol < ΔΔG > −4.184 kJ/mol)

## 1A22 RA19A
[1]; [4]
  sk_ddG_kJ (SKEMPI experimental ΔΔG, mutation to alanine): 0.21 kJ
[2]; [5]
  sk_class (class of the SKEMPI experimental ΔΔG): Neutral (neutral (little effect) 4.184 kJ/mol < ΔΔG > −4.184 kJ/mol)

## 1A22 FA10A
[1]
  sk_ddG_kJ (SKEMPI experimental ΔΔG of binding, mutation to alanine): 4.35 kJ
[2]; [3]
  sk_class (class of the SKEMPI experimental ΔΔG): Positive (positive (a hot residue) ΔΔG ≥ 4.184 kJ/mol)

## 1A22 EA186A
[1]; [4]
  sk_ddG_kJ (SKEMPI experimental ΔΔG, mutation to alanine): 0.00 kJ
[2]; [5]
  sk_class (class of the SKEMPI experimental ΔΔG): Neutral (neutral (little effect) 4.184 kJ/mol < ΔΔG > −4.184 kJ/mol)

## 1A4Y RB33A
[1]; complex by PDBID
  sk_ddG_kJ: 1.38 kJ
[2]; ref SKEMPI
  sk_class: Neutral (neutral (little effect) 4.184 kJ/mol < ΔΔG > −4.184 kJ/mol)

## 1GC1 KC35A
[1]; [6]
  sk_ddG_kJ (SKEMPI experimental ΔΔG, mutation to alanine): 1.34 kJ
[2]; [7]
  sk_class (class of the SKEMPI experimental ΔΔG): Neutral (neutral (little effect) 4.184 kJ/mol < ΔΔG > −4.184 kJ/mol)

## 1A22 YA164A
[1]
  sk_ddG_kJ (SKEMPI experimental ΔΔG of binding, mutation to alanine): 1.26 kJ
[2]; [3]
  sk_class (class of the SKEMPI experimental ΔΔG): Neutral (neutral (little effect) 4.184 kJ/mol < ΔΔG > −4.184 kJ/mol)

## 1A4Y WB89A
[1]; sheet sortedByGroup, r_group FAMILYVW
  sk_ddG_kJ (SKEMPI experimental ΔΔG): 0.96 kJ
[2]
  sk_class: Neutral (neutral (little effect) 4.184 kJ/mol < ΔΔG > −4.184 kJ/mol)

## 1A22 IA179A
[1]
  sk_ddG_kJ (SKEMPI experimental ΔΔG of binding, mutation to alanine): 3.35 kJ
[2]; [3]
  sk_class (class of the SKEMPI experimental ΔΔG): Neutral (neutral (little effect) 4.184 kJ/mol < ΔΔG > −4.184 kJ/mol)

## 1GC1 KC8A
[1]; [6]
  sk_ddG_kJ (SKEMPI experimental ΔΔG, mutation to alanine): 0.46 kJ
[2]; [7]
  sk_class (class of the SKEMPI experimental ΔΔG): Neutral (neutral (little effect) 4.184 kJ/mol < ΔΔG > −4.184 kJ/mol)

B1: 1REW QC86A (protein, UniProt P36894 24-152, looked up, variant Q86A)
extracellular domain: QNLDSMLHGTGMKSDSDQKKSENGVTLAPEDTLPFLKCYCSGHCPDDAINNTCITNGHCFAIIEEDDQGETTLASGCMKYEGSDFACKDSPKAQLRRTIECCRTNLCNQYLQPTLPPVVIGPFFDGSIR
modifications: extracellular domain
[1]; PPI given by PDBID
  sk_ddG_kJ: 11.13 kJ
[1]; class of the SKEMPI experimental ΔΔG
  sk_class: Positive (positive (a hot residue) ΔΔG ≥ 4.184 kJ/mol)
